Test results taken from US9695155B2, “Herbicidal substituted pyrimidinyloxy benzene compounds” (E. I. DU PONT DE NEMOURS AND COMPANY, priority 2013, dated 2017).

What was measured:
[1] = tested on: wheat; experiment: Test A preemergence; format: in vivo, Triticum aestivum
Summary of the method: (§1)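 Compounds in non-phytotoxic solvent with surfactant applied as soil spray preemergence, or postemergence to plants 2-10 cm at one- to two-leaf stage, in loam/sand. After approximately 10 days in greenhouse, injury rated visually versus untreated controls, 0 (no effect) to 100 (complete control).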

[2] = tested on: large (Lg) crabgrass; experiment: Test C postemergence; format: in vivo, Digitaria sanguinalis
Summary of the method: (§2)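 Visual injury score versus untreated controls, 0 = no effect, 100 = complete control, taken 13 to 15 days after treatment in the greenhouse. Pre-emergence pots held loam/sand; post-emergence plants grew in sphagnum peat/vermiculite mix and were sprayed at the 1- to 4-leaf stage.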

[3] = tested on: morningglory; experiment: Test C postemergence; format: in vivo, Ipomoea coccinea
Summary of the method: as §2

[4] = tested on: pigweed; experiment: Test C postemergence; format: in vivo, Amaranthus retroflexus
Summary of the method: as §2

[5] = tested on: giant foxtail; experiment: Test C postemergence; format: in vivo, Setaria faberii
Summary of the method: as §2

[6] = tested on: pigweed; experiment: Test A postemergence; format: in vivo, Amaranthus retroflexus
Summary of the method: as §1

[7] = tested on: soybean; experiment: Test C postemergence; format: in vivo, Glycine max
Summary of the method: as §2

[8] = tested on: giant foxtail; experiment: Test A postemergence; format: in vivo, Setaria faberii
Summary of the method: as §1

[9] = tested on: ragweed; experiment: Test C postemergence; format: in vivo, Ambrosia elatior
Summary of the method: as §2

[10] = tested on: waterhemp; experiment: Test C postemergence; format: in vivo, Amaranthus rudis
Summary of the method: as §2

[11] = tested on: lambsquarters; experiment: Test C postemergence; format: in vivo, Chenopodium album
Summary of the method: as §2

[12] = tested on: corn; experiment: Test A postemergence; format: in vivo, Zea mays
Summary of the method: as §1

[13] = 125 g ai/ha, 0 to 100 scale where 0 is no effect and 100 is complete control
[14] = Postemergence, 31 g ai/ha, scale 0 to 100 (0 no effect, 100 complete control), 13 to 15 days
[15] = Postemergence, 62 g ai/ha, scale 0 to 100 (0 no effect, 100 complete control)
[16] = 500 g ai/ha, 0 to 100 scale, 0 no effect, 100 complete control
[17] = 31 g ai/ha, postemergence, visual rating, scale 0 to 100 (0 no effect, 100 complete control), 13 to 15 days
[18] = 125 g ai/ha, postemergence, visual rating, scale 0 to 100 (0 no effect, 100 complete control)
[19] = Postemergence, 62 g ai/ha, scale 0 to 100 (0 no effect, 100 complete control), 13 to 15 days
[20] = 125 g ai/ha, 0 to 100 scale, 0 no effect, 100 complete control
[21] = 500 g ai/ha, 0 to 100 scale where 0 is no effect and 100 is complete control

## N#Cc1cccc(Oc2ncc(F)cn2)c1-n1cc(Br)cn1 [Compound 62]
[1]; [13]
  Plant response rating, Wheat: 0
[1]; 500 g ai/ha, 0 to 100 scale, 0 no effect, 100 complete control, approx. 10 days
  Wheat plant response rating: 80
[2]; 125 g ai/ha, postemergence
  Plant response rating (0 to 100), Crabgrass, Large: 10
[2]; 250 g ai/ha, postemergence
  Plant response rating (0 to 100), Crabgrass, Large: 35
[2]; [14]
  Plant response rating, Crabgrass, Large: 5
[2]; [15]
  Plant response rating, Crabgrass, Large: 5
[3]; 125 g ai/ha, postemergence
  Plant response rating (0 to 100), Morningglory: 85
[3]; 250 g ai/ha, postemergence
  Plant response rating (0 to 100), Morningglory: 90
[3]; [14]
  Plant response rating, Morningglory: 65
[3]; [15]
  Plant response rating, Morningglory: 70
[4]; 125 g ai/ha, postemergence
  Plant response rating (0 to 100), Pigweed: 75
[4]; 250 g ai/ha, postemergence
  Plant response rating (0 to 100), Pigweed: 80
[4]; [14]
  Plant response rating, Pigweed: 50
[4]; [15]
  Plant response rating, Pigweed: 65
[5]; 125 g ai/ha, postemergence
  Plant response rating (0 to 100), Foxtail, Giant: 20
[5]; 250 g ai/ha, postemergence
  Plant response rating (0 to 100), Foxtail, Giant: 25
[5]; [14]
  Plant response rating, Foxtail, Giant: 5
[5]; [15]
  Plant response rating, Foxtail, Giant: 10
[6]; [13]
  Plant response rating, Pigweed: 100
[6]; [16]
  Plant response rating, Pigweed: 100
[7]; 125 g ai/ha, postemergence
  Plant response rating (0 to 100), Soybean: 95
[7]; 250 g ai/ha, postemergence
  Plant response rating (0 to 100), Soybean: 95
[7]; [14]
  Plant response rating, Soybean: 45
[7]; [15]
  Plant response rating, Soybean: 85
[8]; [13]
  Plant response rating, Foxtail, Giant: 90
[8]; [16]
  Plant response rating, Foxtail, Giant: 100
[9]; 125 g ai/ha, postemergence
  Plant response rating (0 to 100), Ragweed: 50
[9]; 250 g ai/ha, postemergence
  Plant response rating (0 to 100), Ragweed: 50
[9]; [14]
  Plant response rating, Ragweed: 40
[9]; [15]
  Plant response rating, Ragweed: 40
[10]; 125 g ai/ha, postemergence
  Plant response rating (0 to 100), Waterhemp: 75
[10]; 250 g ai/ha, postemergence
  Plant response rating (0 to 100), Waterhemp: 75
[10]; [14]
  Plant response rating, Waterhemp: 40
[10]; [15]
  Plant response rating, Waterhemp: 60
[11]; 125 g ai/ha, postemergence
  Plant response rating (0 to 100), Lambsquarters: 85
[11]; 250 g ai/ha, postemergence
  Plant response rating (0 to 100), Lambsquarters: 90
[11]; [14]
  Plant response rating, Lambsquarters: 60
[11]; [15]
  Plant response rating, Lambsquarters: 60
[12]; [13]
  Plant response rating, Corn: 70
[12]; [16]
  Plant response rating, Corn: 90

## N#Cc1cccc(Oc2ncc(Cl)cn2)c1-n1cc(-n2ccc(C(F)(F)F)n2)cn1 [Compound 284]
[2]; [17]
  Crabgrass, Large plant response rating: 5
[2]; [18]
  Plant response rating, Crabgrass, Large: 10
[2]; 250 g ai/ha, postemergence
  Plant response rating (0 to 100), Crabgrass, Large: 10
[2]; [19]
  Plant response rating, Crabgrass, Large: 5
[3]; [17]
  Morningglory plant response rating: 70
[3]; [18]
  Plant response rating, Morningglory: 85
[3]; 250 g ai/ha, postemergence
  Plant response rating (0 to 100), Morningglory: 100
[3]; [19]
  Plant response rating, Morningglory: 100
[4]; [17]
  Pigweed plant response rating: 98
[4]; [18]
  Plant response rating, Pigweed: 100
[4]; 250 g ai/ha, postemergence
  Plant response rating (0 to 100), Pigweed: 100
[4]; [19]
  Plant response rating, Pigweed: 98
[5]; [17]
  Foxtail, Giant plant response rating: 10
[5]; [18]
  Plant response rating, Foxtail, Giant: 20
[5]; 250 g ai/ha, postemergence
  Plant response rating (0 to 100), Foxtail, Giant: 25
[5]; [19]
  Plant response rating, Foxtail, Giant: 10
[6]; [20]
  Plant response rating, Pigweed: 100
[6]; [21]
  Plant response rating, Pigweed: 100
[7]; [17]
  Soybean plant response rating: 35
[7]; [18]
  Plant response rating, Soybean: 85
[7]; 250 g ai/ha, postemergence
  Plant response rating (0 to 100), Soybean: 65
[7]; [19]
  Plant response rating, Soybean: 40
[8]; [20]
  Plant response rating, Foxtail, Giant: 90
[8]; [21]
  Plant response rating, Foxtail, Giant: 90
[9]; [17]
  Ragweed plant response rating: 55
[9]; [18]
  Plant response rating, Ragweed: 50
[9]; 250 g ai/ha, postemergence
  Plant response rating (0 to 100), Ragweed: 80
[9]; [19]
  Plant response rating, Ragweed: 55
[10]; [17]
  Waterhemp plant response rating: 85
[10]; [18]
  Plant response rating, Waterhemp: 98
[10]; 250 g ai/ha, postemergence
  Plant response rating (0 to 100), Waterhemp: 100
[10]; [19]
  Plant response rating, Waterhemp: 85
[11]; [17]
  Lambsquarters plant response rating: 70
[11]; [18]
  Plant response rating, Lambsquarters: 98
[11]; 250 g ai/ha, postemergence
  Plant response rating (0 to 100), Lambsquarters: 98
[11]; [19]
  Plant response rating, Lambsquarters: 85
[12]; [20]
  Plant response rating, Corn: 20
[12]; [21]
  Plant response rating, Corn: 40
